Results as given in the CheMixHub viscosity set.
± gives the uncertainty stated by the source.

Assay: xn = mol fraction of the nth substance listed

CCOCCO + ClC(Cl)(Cl)Cl
viscosity [mPa·s], 100 kPa
Conditions	x2 = 0.0977	x2 = 0.1959	x2 = 0.2946	x2 = 0.3938	x2 = 0.4935	x2 = 0.5937	x2 = 0.6945	x2 = 0.7958	x2 = 0.8976
298.15 K	1.784 ± 0.016	1.657 ± 0.015	1.539 ± 0.014	1.428 ± 0.013	1.325 ± 0.012	1.229 ± 0.011	1.14 ± 0.011	1.056 ± 0.0099	0.9785 ± 0.0092
303.15 K	1.572 ± 0.014	1.47 ± 0.013	1.373 ± 0.013	1.283 ± 0.012	1.197 ± 0.011	1.118 ± 0.01	1.043 ± 0.0098	0.9725 ± 0.0092	0.9067 ± 0.0086
308.15 K	1.391 ± 0.013	1.308 ± 0.012	1.23 ± 0.011	1.155 ± 0.011	1.085 ± 0.01	1.019 ± 0.0096	0.9566 ± 0.009	0.8976 ± 0.0085	0.8421 ± 0.0081
313.15 K	1.236 ± 0.011	1.168 ± 0.011	1.105 ± 0.01	1.044 ± 0.0098	0.9864 ± 0.0093	0.9318 ± 0.0088	0.8798 ± 0.0084	0.8306 ± 0.008	0.7838 ± 0.0076

CC(CC(C)(C)C)CP(=O)(O)CC(C)CC(C)(C)C (stereo not drawn) + ClC(Cl)Cl
298.15 K, 101 kPa
Conditions	viscosity [mPa·s]
x1 = 0.0053	0.568 ± 0.007
x1 = 0.0095	0.615 ± 0.007
x1 = 0.011	0.638 ± 0.008
x2 = 0.1271	90.02 ± 1.3
x2 = 0.2117	75.09 ± 0.98
x2 = 0.3912	50.44 ± 0.56
x2 = 0.5499	30.02 ± 0.35
x2 = 0.7028	11.91 ± 0.14
x2 = 0.7739	6.921 ± 0.081
x2 = 0.8002	5.613 ± 0.066
x2 = 0.8091	5.202 ± 0.061
x2 = 0.8378	3.942 ± 0.046
x2 = 0.8852	2.458 ± 0.029
x2 = 0.8924	2.301 ± 0.027
x2 = 0.9394	1.35 ± 0.016
x2 = 0.9426	1.28 ± 0.015
x2 = 0.9762	0.818 ± 0.01

CC(C)CCO + ClCCCl
viscosity [mPa·s], 101 kPa
Conditions	x1 = 0.1272	x1 = 0.2201	x1 = 0.3264	x1 = 0.4302	x1 = 0.5765	x1 = 0.6639	x1 = 0.8049	x1 = 0.888
303.15 K	0.743 ± 0.019	0.797 ± 0.02	0.9054 ± 0.021	1.029 ± 0.023	1.302 ± 0.027	1.532 ± 0.03	2.081 ± 0.038	2.51 ± 0.045
313.15 K	0.6478 ± 0.018	0.6865 ± 0.018	0.7649 ± 0.019	0.8579 ± 0.021	1.065 ± 0.024	1.23 ± 0.026	1.619 ± 0.032	1.91 ± 0.036
323.15 K	0.5786 ± 0.017	0.603 ± 0.017	0.665 ± 0.018	0.7365 ± 0.019	0.8917 ± 0.021	1.015 ± 0.023	1.309 ± 0.027	1.507 ± 0.03

CC(CC(C)(C)C)CP(=O)(O)CC(C)CC(C)(C)C (stereo not drawn) + ClCCCl
298.15 K, 101 kPa
Conditions	viscosity [mPa·s]
x1 = 0.0052	0.825 ± 0.01
x1 = 0.0094	0.891 ± 0.011
x1 = 0.0107	0.931 ± 0.011
x2 = 0.0747	93.3 ± 1.4
x2 = 0.1457	79.06 ± 1.1
x2 = 0.2376	61.57 ± 0.73
x2 = 0.3715	42.12 ± 0.49
x2 = 0.568	20.09 ± 0.23
x2 = 0.7166	9.021 ± 0.11
x2 = 0.8017	5.212 ± 0.061
x2 = 0.8105	4.99 ± 0.058
x2 = 0.8887	2.678 ± 0.031
x2 = 0.8942	2.603 ± 0.03
x2 = 0.9417	1.597 ± 0.019
x2 = 0.9439	1.578 ± 0.018
x2 = 0.9767	1.087 ± 0.013

CCOCCO + NC1CCCCC1
308.15 K, 101 kPa
Conditions	viscosity [mPa·s]
x1 = 0.1163	1.345 ± 0.14
x1 = 0.2284	1.366 ± 0.14
x1 = 0.3366	1.391 ± 0.14
x1 = 0.4411	1.419 ± 0.15
x1 = 0.5421	1.437 ± 0.15
x1 = 0.6398	1.457 ± 0.15
x1 = 0.7342	1.459 ± 0.15
x1 = 0.8257	1.455 ± 0.15
x1 = 0.9142	1.45 ± 0.15

CC(C)CCO + NC=O
298.1 K, 101 kPa
Conditions	viscosity [mPa·s]
x2 = 0.0932	3.579 ± 0.0046
x2 = 0.1809	3.571 ± 0.004
x2 = 0.2579	3.687 ± 0.0034
x2 = 0.3292	3.799 ± 0.0028
x2 = 0.4564	3.993 ± 0.0017
x2 = 0.5661	4.174 ± 0.0009
x2 = 0.6617	4.273 ± 0.0013
x2 = 0.7463	4.252 ± 0.0024
x2 = 0.8205	4.071 ± 0.0035
x2 = 0.8871	3.8 ± 0.0047
x2 = 0.9462	3.567 ± 0.0059
